Assay results published in publication PMC8911927, “Synthesis and Biological Evaluation of 1-(2-(6-Methoxynaphthalen-2-yl)-6-methylnicotinoyl)-4-Substituted Semicarbazides/Thiosemicarbazides as Anti-Tumor Nur77 Modulators” (Molecules, 2022).
Values belong to the compound of their own block, whether it stands above or below them.

What was measured:
HeLa cells = assay: MTT cytotoxicity, HeLa; assay type: cell-based, human; details: 72 h, mean values
Experimental: (§1) All of the cell lines were obtained from the American Type Culture Collection (ATCC, Manassas, VA, USA) and grown in DMEM or RPMI culture medium containing 10% fetal bovine serum (v/v) in 5% CO2 at 37 °C.
(§2) Confluent cells in good state were cultured in 96-well plates (5–10 × 10^4 cells/mL). After cells were attached to the plate, compounds with various concentrations were applied at 37 °C for 72 h. Then, the cells were incubated with 10 μL of 5 mg/mL MTT reagent at 37 °C for 4 h. The supernatant was removed, and the cells were dissolved in 100 μL dimethyl sulfoxide and shaken for 5 min. Finally, the light absorption (OD) of the dissolved cells was measured at […].

HGC-27 cells [1] = assay: MTT cytotoxicity, HGC-27; assay type: cell-based, human; details: 72 h, mean values
Experimental: as §1, §2

MCF-7 cells = assay: MTT cytotoxicity, MCF-7; assay type: cell-based, human; details: mean values
Experimental: as §1, §2

HepG2 cells = assay: MTT cytotoxicity, HepG2; assay type: cell-based; details: read-out: Cancer Cells IC50, HepG2
Experimental: (§3) All of the cell lines were obtained from the American Type Culture Collection (ATCC, Manassas, VA, USA) and grown in DMEM or RPMI culture medium containing 10% fetal bovine serum (v/v) in 5% CO2 at 37 °C. Confluent cells in good state were cultured in 96-well plates (5–10 × 10^4 cells/mL). After cells were attached to the plate, compounds with various concentrations were applied at 37 °C for 72 h. […] The supernatant was removed, and the cells were dissolved in 100 μL dimethyl sulfoxide and shaken for 5 min.

A549 cells = assay: MTT cytotoxicity, A549; assay type: cell-based; details: read-out: Cancer Cells IC50, A549
Experimental: as §3

MDA-MB231 cells = assay: MTT cytotoxicity, MDA-MB231; assay type: cell-based; details: read-out: Cancer Cells IC50, MDA-MB231
Experimental: as §3

H460 cells = assay: MTT cytotoxicity, H460; assay type: cell-based; details: read-out: Cancer Cells IC50, H460
Experimental: as §3

A875 cells = assay: MTT cytotoxicity, A875; assay type: cell-based; details: read-out: Cancer Cells IC50, A875
Experimental: as §3

MRC-5 cells = assay: MTT cytotoxicity, MRC-5 normal cells; assay type: cell-based
Experimental: as §3

LO2 cells = assay: MTT cytotoxicity, LO2 normal cells; assay type: cell-based
Experimental: as §3

HGC-27 cells [2] = assay: Colony formation assay; assay type: cell-based, human; details: treatment for two weeks, 5 μM and 10 μM, dose-dependent
Experimental: HGC-27 cells were cultured in a six-well plate (500 cells/well) and treated with 9u and 9h in 10% serum medium for two weeks, then fixed with methanol at room temperature and stained with 0.1% crystal violet, and images were scanned with a scanner.

HGC-27 cells [3] = assay: Flow cytometry cell cycle assay; assay type: cell-based, human; design: dose or concentration left out as unconfirmed; details: 8 h of treatment
Experimental: Flow cytometry analysis was applied for cell cycle detection. Firstly, HGC-27 cell was adjusted to 1 × 10^6/mL, inoculated into a six-well plate and placed in an incubator at 37 °C containing 5% CO2 saturated humidity overnight. After the cells were fully attached to the plate, […] 9u and 9h were administrated to the cells for 8 h. After cells were collected and fixed with 70% ethanol, DAPI was applied to stain the cells at the final concentration of 1 μg/mL; subsequently, on-board testing by flow cytometry (Cytoflex S (Beckman Coulter, Brea, CA, USA)) was conducted.

cleaved PARP = assay: Western blot of cleaved PARP; assay type: cell-based, human; details: HGC-27 cells, different times and concentrations, 24 h
Experimental: Equal amounts of the lysates were electrophoresed on 10% SDS-PAGE gel and transferred onto PVDF membranes. After blocked with 5% nonfat milk in TBST (50 mM Tris-HCl (pH 7.4), 150 mM NaCl and 0.1% Tween 20) for 1 h, the membranes were incubated with various primary antibodies overnight and secondary antibodies for 3 h, finally detected using an ECL system. The blots were captured with ChemiDoc XRS+System (Bio-Rad, Hercules, CA, USA).

Compound: 1-(2-(6-Methoxynaphthalen-2-yl)-6-methylnicotinoyl)-4-(4-methoxyphenyl)semicarbazide [Compound 9g]
IC50 (HeLa cells): 20.2 ± 0.31 µM
IC50 (HGC-27 cells [1]): 19.4 ± 0.63 µM
IC50 (MCF-7 cells; 72 h): 18.4 ± 0.21 µM

Compound: 1-(2-(6-Methoxynaphthalen-2-yl)-6-methylnicotinoyl)-4-(4-methoxyphenyl)thiosemicarbazide [Compound 9t]
IC50 (HeLa cells): 10.1 ± 0.61 µM
IC50 (HGC-27 cells [1]): 16.7 µM
IC50 (MCF-7 cells; 72 h): 11.4 µM

Compound: 1-(2-(6-Methoxynaphthalen-2-yl)-6-methylnicotinoyl)-4-m-tolylthiosemicarbazide [Compound 9r]
IC50 (HeLa cells): 20.2 ± 0.24 µM
IC50 (HGC-27 cells [1]): 19.4 ± 0.11 µM
IC50 (MCF-7 cells; 72 h): 18.4 ± 0.41 µM

Compound: 1-(2-(6-Methoxynaphthalen-2-yl)-6-methylnicotinoyl)-4-o-tolylsemicarbazide [Compound 9d]
IC50 (HeLa cells): 20.7 ± 0.26 µM
IC50 (HGC-27 cells [1]): 39.1 ± 0.72 µM
IC50 (MCF-7 cells; 72 h): 35.2 ± 0.6 µM

Compound: 1-(2-(6-Methoxynaphthalen-2-yl)-6-methylnicotinoyl)-4-o-tolylthiosemicarbazide [Compound 9q]
IC50 (HeLa cells): 14.2 ± 0.22 µM
IC50 (HGC-27 cells [1]): 19.4 ± 0.69 µM
IC50 (MCF-7 cells; 72 h): 23.3 ± 0.21 µM

Compound: 1-(2-(6-Methoxynaphthalen-2-yl)-6-methylnicotinoyl)-4-p-tolylsemicarbazide [Compound 9f]
IC50 (HeLa cells): 24.2 ± 0.61 µM
IC50 (HGC-27 cells [1]): 29.4 ± 0.31 µM
IC50 (MCF-7 cells; 72 h): 23.3 ± 0.1 µM

Compound: 1-(2-(6-Methoxynaphthalen-2-yl)-6-methylnicotinoyl)-4-p-tolylthiosemicarbazide [Compound 9s]
IC50 (HeLa cells): 16.12 ± 0.07 µM
IC50 (HGC-27 cells [1]): 10.4 ± 0.19 µM
IC50 (MCF-7 cells; 72 h): 19.3 ± 0.3 µM

Compound: 1-(2-(6-Methoxynaphthalen-2-yl)-6-methylnicotinoyl)-4-phenethylthiosemicarbazide [Compound 9o]
IC50 (HeLa cells): 20.7 ± 0.22 µM
IC50 (HGC-27 cells [1]): 39.12 ± 0.21 µM
IC50 (MCF-7 cells; 72 h): 35.2 ± 0.09 µM

Compound: 1-(2-(6-Methoxynaphthalen-2-yl)-6-methylnicotinoyl)-4-phenylthiosemicarbazide [Compound 9p]
IC50 (HeLa cells): 14.7 ± 0.31 µM
IC50 (HGC-27 cells [1]): 19.24 ± 0.09 µM
IC50 (MCF-7 cells; 72 h): 23.34 ± 0.21 µM

Compound: 1-(2-(6-methoxynaphthalen-2-yl)-6-methylnicotinoyl)-4-m-tolylsemicarbazide [Compound 9e]
IC50 (HeLa cells): 24.65 ± 0.24 µM
IC50 (HGC-27 cells [1]): 49.24 ± 0.26 µM
IC50 (MCF-7 cells; 72 h): 33.34 ± 0.12 µM

Compound: 4-(2,4-Difluorophenyl)-1-(2-(6-methoxynaphthalen-2-yl)-6-methylnicotinoyl)thiosemicarbazide [Compound 9v]
IC50 (HeLa cells): 10.1 ± 0.11 µM
IC50 (HGC-27 cells [1]): 12.4 ± 0.25 µM
IC50 (MCF-7 cells; 72 h): 11.6 ± 0.56 µM

Compound: 4-(2-Chlorophenyl)-1-(2-(6-methoxynaphthalen-2-yl)-6-methylnicotinoyl)thiosemicarbazide [Compound 9u]
IC50 (HeLa cells): 6.1 ± 0.5 µM
IC50 (HGC-27 cells [1]): 4.56 ± 0.09 µM
IC50 (MCF-7 cells; 72 h): 6.44 ± 0.07 µM
IC50 (HepG2 cells): 7.2 ± 0.11 µM
IC50 (A549 cells): 11.2 ± 0.46 µM
IC50 (MDA-MB231 cells): 21 ± 0.01 µM
IC50 (H460 cells): 14 ± 0.38 µM
IC50 (A875 cells): 15.7 ± 0.11 µM
IC50 (MRC-5 cells): 22.1 ± 0.11 µM
IC50 (LO2 cells): 41 ± 0.7 µM
Colony formation of HGC-27 cells (HGC-27 cells [2]): completely inhibited colony formation
Effect on cell cycle (HGC-27 cells [3]): induced cell cycle blockage in G2-M phase
PARP cleavage (cleaved PARP): induce the PARP cleavage in a dose-dependent and time-dependent manner

Compound: 4-(3,4-Dichlorophenyl)-1-(2-(6-methoxynaphthalen-2-yl)-6-methylnicotinoyl)semicarbazide [Compound 9k]
IC50 (HeLa cells): 10.1 ± 0.69 µM
IC50 (HGC-27 cells [1]): 12.4 ± 0.5 µM
IC50 (MCF-7 cells; 72 h): 11.6 ± 0.45 µM

Compound: 4-(3,4-Dichlorophenyl)-1-(2-(6-methoxynaphthalen-2-yl)-6-methylnicotinoyl)thiosemicarbazide [Compound 9w]
IC50 (HeLa cells): 10.7 ± 0.34 µM
IC50 (HGC-27 cells [1]): 16.4 ± 0.31 µM
IC50 (MCF-7 cells; 72 h): 10.9 ± 0.42 µM

Compound: 4-(3,5-Difluorophenyl)-1-(2-(6-methoxynaphthalen-2-yl)-6-methylnicotinoyl)semicarbazide [Compound 9j]
IC50 (HeLa cells): 12.1 ± 0.21 µM
IC50 (HGC-27 cells [1]): 16.6 ± 0.44 µM
IC50 (MCF-7 cells; 72 h): 16.3 ± 0.34 µM

Compound: 4-(3,5-Dimethylphenyl)-1-(2-(6-methoxynaphthalen-2-yl)-6-methylnicotinoyl)semicarbazide [Compound 9i]
IC50 (HeLa cells): 20.1 ± 0.44 µM
IC50 (HGC-27 cells [1]): 19.7 ± 0.31 µM
IC50 (MCF-7 cells; 72 h): 21.4 ± 0.25 µM

Compound: 4-Benzyl-1-(2-(6-methoxynaphthalen-2-yl)-6-methylnicotinoyl)semicarbazide [Compound 9c]
IC50 (HeLa cells): 25.3 ± 0.45 µM
IC50 (HGC-27 cells [1]): 23.16 ± 0.2 µM
IC50 (MCF-7 cells; 72 h): 21.1 ± 0.52 µM

Compound: 4-Benzyl-1-(2-(6-methoxynaphthalen-2-yl)-6-methylnicotinoyl)thiosemicarbazide [Compound 9n]
IC50 (HeLa cells): 25.33 ± 0.1 µM
IC50 (HGC-27 cells [1]): 23.16 ± 0.07 µM
IC50 (MCF-7 cells; 72 h): 21.1 ± 0.32 µM

Compound: 4-Cyclohexyl-1-(2-(6-methoxynaphthalen-2-yl)-6-methylnicotinoyl)thiosemicarbazide [Compound 9m]
IC50 (HeLa cells): 34.5 ± 0.37 µM
IC50 (HGC-27 cells [1]): 30.2 ± 0.61 µM
IC50 (MCF-7 cells; 72 h): 35.4 ± 0.41 µM

Compound: 4-Cyclopentyl-1-(2-(6-methoxynaphthalen-2-yl)-6-methylnicotinoyl)semicarbazide [Compound 9a]
IC50 (HeLa cells): 88.39 ± 0.22 µM
IC50 (HGC-27 cells [1]): 38.39 ± 0.32 µM
IC50 (MCF-7 cells; 72 h): 60.26 ± 0.11 µM

Compound: N.N.[Cl][Pt][Cl] [Cisplatin, reference compound]
IC50 (HeLa cells): 12.45 ± 0.11 µM
IC50 (HGC-27 cells [1]): 8.9 ± 0.2 µM
IC50 (MCF-7 cells; 72 h): 10.5 ± 0.31 µM
IC50 (HepG2 cells): 15.2 ± 0.29 µM
IC50 (A549 cells): 9.3 ± 0.11 µM
IC50 (MDA-MB231 cells): 20.2 ± 0.25 µM
IC50 (H460 cells): 16.6 ± 0.09 µM
IC50 (A875 cells): 21.2 ± 0.08 µM
IC50 (MRC-5 cells): > 50 µM
IC50 (LO2 cells): > 50 µM

melting point: 236 to 237 °C
Compound: COc1ccc2cc(-c3ccc(C(=O)NNC(=O)NC4CCCCC4)c(C)n3)ccc2c1 [Compound 9b]
IC50 (HeLa cells; Homo sapiens): 30.5 ± 0.4 µM
IC50 (HGC-27 cells [1]; Homo sapiens): 50.26 ± 0.2 µM
IC50 (MCF-7 cells; Homo sapiens, MCF7, 72 h): 41.5 ± 0.78 µM

melting point: 195 to 196 °C
Compound: CCCCCCNC(=S)NNC(=O)c1ccc(C)nc1-c1ccc2cc(OC)ccc2c1 [Compound 9l, 4-Hexyl-1-(2-(6-methoxynaphthalen-2-yl)-6-methylnicotinoyl)thiosemicarbazide]
IC50 (HeLa cells; Homo sapiens): 45.4 ± 0.11 µM
IC50 (HGC-27 cells [1]; Homo sapiens): 38.1 ± 0.21 µM
IC50 (MCF-7 cells; Homo sapiens, MCF7, 72 h): 40.2 ± 0.33 µM
